# Assay results published in US8008354B2, “Death receptor sensitizing compounds and methods of use therefor” (Burnham Institute for Medical Research, priority 2006, dated 2011).
# System: E1A-transformed wild-type (WT) and caspase 8-/- MEFs
# Experiment: MTS viability of wild-type and caspase 8-/- MEFs in suspension conditions
# Format: cell-based
# Details: ten hours
# Method: FIG. 15. 5809354 sensitizes cells to anoikis through a caspase 8 dependent mechanism. (A) PPC-1 cells (5×10^4) were cultured under suspension conditions overnight and then treated with 5809354 in the presence or absence of the pan-caspase inhibitor z-VAD-fink (100 μM). Thirty hours after incubation, anoikis was determined by flow cytometry to detect cell surface annexin V expression and PI uptake. Data represents the mean±SEM percent of viable cells or colonies compared to untreated controls. (B) PPC-1 cells (5×10^4) were cultured in suspension conditions overnight and then treated with 5809354 (60 μM). At increasing times after treatment, caspase activation was detected with FITC-labeled peptides that bind preferentially and irreversibly to caspase 3/7, 8, or 9. Caspase activation was monitored by flow cytometry to quantify the percentage of fluorescently labeled cells. […] At increasing times after incubation, total cellular protein was isolated and analyzed by SDS-PAGE immunoblotting using anti-caspase 8 and anti-actin antibodies. * indicates cleaved caspase 8. […] Thirty hours after incubation, apoptosis was measured by cell surface annexin V expression and PI uptake. […] Ten hours after incubation, cell viability was measured using the MTS assay. […] EGFP expression and nuclear morphology were analyzed by fluorescence microscopy. […]
substance,measurement,value
4-(4-chloro-2-methylphenoxy)-N-hydroxybutanamide [compound 5809354],anoikis of caspase 8-deficient MEFs compared to wild-type,resistant
